In article PMC6429183, “Identification of Compounds That Inhibit Estrogen-Related Receptor Alpha Signaling Using High-Throughput Screening Assays” (Molecules, 2019):
“And” between values parts separate entries of the source, which are not always exact repeats. Equal values may be shown once. Where a name gives a salt, the structure may show the parent alone. Read-outs that look alike come from different tables or passages of the source.

Assays:
[1] = tested on: ERR reporter HEK293 cells; assay: CellTiter-Fluor cell viability assay multiplexed with ERR reporter assay; format: cell-based; details: for EC50: Homo sapiens, HEK293
Method: (§1) ERR or PGC/ERR reporter HEK293 cells suspended in culture medium without puromycin were dispensed at 2500 cells/5 μL/well in tissue culture–treated 1536-well white assay plates (Greiner Bio-One North America, Monroe, NC, USA) using a Thermo Scientific Multidrop Combi (ThermoFisher Scientific, Inc.). […] After the cells were incubated at 37 °C with 5% CO2 for 6 h, 23 nL of compounds or control, XTC790, was transferred into the assay plates using a Wako Pintool station (Wako Automation, San Diego, CA, USA). The assay plates were incubated at 37 °C for 18 h, followed by the addition of 5 μL ONE-Glo luciferase reagent (Promega, Madison, WI, USA) using a Flying Reagent Dispenser (Aurora Discovery, Carlsbad, CA, USA). After 30 min of incubation at room temperature, the luminescence intensity of the assay plates was quantified using a ViewLux plate reader (PerkinElmer, Shelton, CT, USA). The assays were performed three times for each compound concentration. These ERR and PGC/ERR reporter assays were multiplexed with the CellTiter-Fluor Cell Viability Assay (Promega), a fluorescence-based cell viability assay, to assess compound cytotoxicity.
The qHTS data were analyzed as described previously. […] The DMSO-only compound plates at the beginning and end of the compound plate stack were used to correct the data set by applying an in-house pattern correction algorithm. The half maximum inhibition values (IC50) for each compound and maximum response (efficacy) values were obtained by fitting the concentration-response curves of each compound to a four-parameter Hill equation [91]. […] For each reading, the activity outcome of a test compound was first categorized by the average curve rank from the triplicate runs and the reproducibility calls. The final activity outcome of each compound was based on the ERR antagonist readout activity and cell viability counter screen.

[2] = tested on: PGC/ERR reporter HEK293 cells; assay: CellTiter-Fluor cell viability assay multiplexed with PGC/ERR reporter assay; format: cell-based; details: for PGC/ERR-HEK293 Follow-Up Viability EC50: follow-up screen; for PGC/ERR-HEK293 Primary Viability EC50: primary qHTS; for EC50: Homo sapiens
Method: as §1
The qHTS data were analyzed as described previously. Each titration point was normalized relative to the positive control compound (XCT790 = −100%) and DMSO-only wells (0%) according to the following equation: % Activity = [(Vcompound − VDMSO)/(VDMSO − Vpos)] × 100, where Vcompound denotes the compound well values, Vpos denotes the median value of the positive control wells, and VDMSO denotes the median values of the DMSO-only wells. The DMSO-only compound plates at the beginning and end of the compound plate stack were used to correct the data set by applying an in-house pattern correction algorithm. The half maximum inhibition values (IC50) for each compound and maximum response (efficacy) values were obtained by fitting the concentration-response curves of each compound to a four-parameter Hill equation [91]. Compounds were designated as Class 1–4 according to the type of concentration–response curve observed. For each reading, the activity outcome of a test compound was first categorized by the average curve rank from the triplicate runs and the reproducibility calls. The final activity outcome of each compound was based on the ERR antagonist readout activity and cell viability counter screen.

[3] = target: T1, ERRα with PGC-1α (PGC/ERR pathway) (Homo sapiens, UniProt P11474); assay: PGC/ERR reporter (luciferase) qHTS assay, PGC/ERR-HEK293; details: for PGC/ERR-HEK293 Follow-Up Efficacy / PGC/ERR-HEK293 Primary Efficacy: negative = antagonism, positive = agonism
T1 sequence (P11474 1-423): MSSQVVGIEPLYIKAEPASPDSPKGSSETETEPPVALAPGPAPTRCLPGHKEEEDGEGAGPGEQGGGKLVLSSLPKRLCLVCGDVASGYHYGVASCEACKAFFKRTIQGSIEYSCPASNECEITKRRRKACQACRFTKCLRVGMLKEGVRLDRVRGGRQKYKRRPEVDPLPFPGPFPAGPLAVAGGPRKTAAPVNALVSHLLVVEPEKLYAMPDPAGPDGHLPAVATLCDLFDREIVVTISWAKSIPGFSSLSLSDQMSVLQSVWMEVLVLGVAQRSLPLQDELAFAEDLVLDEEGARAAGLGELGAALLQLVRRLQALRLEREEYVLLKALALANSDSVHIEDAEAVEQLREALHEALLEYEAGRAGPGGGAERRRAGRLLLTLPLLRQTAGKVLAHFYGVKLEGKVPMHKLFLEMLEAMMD
Method: (§3) The ERR reporter HEK293 cells were cultured in high glucose DMEM medium (ThermoFisher Scientific, Inc., Waltham, MA, USA) supplemented with 10% fetal bovine serum (FBS; ThermoFisher Scientific, Inc.), 4 mM of L-glutamine (ThermoFisher Scientific, Inc.), 1 mM of sodium pyruvate (ThermoFisher Scientific, Inc.), 100 U/mL of penicillin and 100 mg/mL of streptomycin (ThermoFisher Scientific, Inc.). PGC/ERR reporter HEK293 cells were cultured in the same medium as the ERR reporter HEK293 cells with an additional 1 μg/mL puromycin (ThermoFisher Scientific, Inc.) as the selection marker for PGC-1α expression.
(§4) The DMSO-only compound plates at the beginning and end of the compound plate stack were used to correct the data set by applying an in-house pattern correction algorithm [90]. The half maximum inhibition values (IC50) for each compound and maximum response (efficacy) values were obtained by fitting the concentration-response curves of each compound to a four-parameter Hill equation [91]. […] For each reading, the activity outcome of a test compound was first categorized by the average curve rank from the triplicate runs and the reproducibility calls. The final activity outcome of each compound was based on the ERR antagonist readout activity and cell viability counter screen.

[4] = target: T2, estrogen-related receptor alpha (ERRα) (Homo sapiens, UniProt P11474); assay: ERR reporter (luciferase) antagonist qHTS assay, ERR-HEK293; details: for ERR-HEK293 Follow-Up Efficacy: follow-up screen; for ERR-HEK293 Follow-Up Efficacy / ERR-HEK293 Primary Efficacy: relative to XCT790 = −100%; for ERR-HEK293 Primary Efficacy: primary qHTS, DMSO = 0%
T2 sequence (P11474 1-423): T1 sequence (P11474 1-423)
Method: as §3, §4

[5] = tested on: COX8α; assay: qRT-PCR mRNA expression of ERR downstream gene COX8α; format: cell-based; details: ERR reporter cells, vs GAPDH, DMSO = 0%
Method: (§2) Total RNA was isolated from treated ERR reporter cells using an RNeasy Mini Kit (Qiagen, Germantown, MD, USA), homogenized using a QIAshredder (Qiagen), and reverse transcribed with a High-Capacity RNA-to-cDNA™ Kit (ThermoFisher Scientific, Inc.) following the manufacturers’ instructions. Expression of ERRα, COX8α, IDH3α, PPARα, COX4I1, and cytochrome c genes was normalized against GAPDH. All primers were purchased from ThermoFisher Scientific, Inc. Real-time PCR assays were performed in 384-well plates on a QuantStudio 5 (Applied Biosystems, Foster City, CA, USA) with TaqMan™ Gene Expression Master Mix (ThermoFisher Scientific, Inc.). Induction values were calculated using the equation: Fold = 2^ΔΔCt, where ΔCt represents the differences in cycle threshold numbers between each of the target genes and GAPDH, and ΔΔCt represents the relative change in these differences between control and treatment groups. Experimental data are presented as a mean of triplicate determinations ± SD. Statistical comparisons were made by t-test, while the statistical significance was set at p values of <0.05 (light blue), <0.01 (medium blue), and <0.001 (dark blue).

[6] = tested on: IDH3α; assay: qRT-PCR mRNA expression of ERR downstream gene IDH3α; format: cell-based; details: ERR reporter cells, vs GAPDH, DMSO = 0%
Method: as §2

[7] = tested on: cytochrome c; assay: qRT-PCR mRNA expression of ERR downstream gene cytochrome c; format: cell-based; details: ERR reporter cells, vs GAPDH, DMSO = 0%
Method: as §2

[8] = target: T2, estrogen-related receptor alpha (ERRα)
Method: as §3, §4

[9] = target: T1, ERRα with PGC-1α (PGC/ERR pathway)
Method: as §3, §4

[10] = primary qHTS, viability counter screen
[11] = ERR-HEK293 Follow-Up EC50, follow-up (confirmation) screen, mean ± SD, triplicate
[12] = ERR-HEK293 Primary EC50, primary qHTS, 18 h, 15 concentrations, mean ± SD, triplicate
[13] = follow-up screen, viability, read-out: ERR-HEK293 Follow-Up Viability EC50 (converted)
[14] = PGC/ERR-HEK293 Follow-Up EC50, follow-up screen, mean ± SD, triplicate
[15] = PGC/ERR-HEK293 Primary EC50, primary qHTS, 18 h, mean ± SD, triplicate

ERR-HEK293 Follow-Up Efficacy [4] [%]	ERR-HEK293 Primary Efficacy [4] [%]	EC50 [4, 11] [nM]	EC50 [4, 12] [nM]	Structure (SMILES)	ERR-HEK293 Follow-Up Viability EC50 ([1]; follow-up screen, viability)	ERR-HEK293 Primary Viability EC50 [1, 10]	PGC/ERR-HEK293 Follow-Up Viability EC50 [2]	PGC/ERR-HEK293 Primary Viability EC50 [2]	PGC/ERR-HEK293 Follow-Up Efficacy ([3]; follow-up screen) [%]	PGC/ERR-HEK293 Primary Efficacy ([3]; primary qHTS)	EC50 [3, 14] [µM]	EC50 [3, 15] [µM]	other results
				CON=C(C(=O)OC)c1ccccc1CON=C(C)c1cccc(C(F)(F)F)c1 [Trifloxystrobin]									Percent inhibition of mRNA gene expression, COX8α ([5]; 0.5 µM): 38.4 ± 17.2%; Percent inhibition of mRNA gene expression, IDH3α ([6]; 0.5 µM): 10.4 ± 0.21%
				Nc1ccc2cc3ccc(N)cc3nc2c1 [Proflavin hemisulfate]									Percent inhibition of mRNA gene expression, COX8α ([5]; 3 µM): 34.8 ± 26.7%; Percent inhibition of mRNA gene expression, IDH3α ([6]; 3 µM): 24.9 ± 20.6%; Percent inhibition of mRNA gene expression, Cytochrome C ([7]; 3 µM): 20.6 ± 8.69%
−67.7 ± 6.20	−51.8 ± 5.77	1750 ± 314	875 ± 59.3	O=c1[nH]c(=O)n([C@H]2C[C@H](O)[C@@H](CO)O2)cc1C(F)(F)F [Trifluridine]	Inactive	Inactive	Inactive Inactive	Inactive Inactive					Percent inhibition of mRNA gene expression, COX8α ([5]; 1 µM): 43.2 ± 21.8%; PGC/ERR-HEK293 Follow-Up EC50 ([3]; follow-up screen, mean ± SD, triplicate): Inactive Inactive; PGC/ERR-HEK293 Primary EC50 ([3]; primary qHTS, 18 h, mean ± SD, triplicate): Inactive Inactive
				Nc1ncn([C@H]2C[C@H](O)[C@@H](CO)O2)c(=O)n1 [Decitabine]									Percent inhibition of mRNA gene expression, IDH3α ([6]; 2 µM): 5.79 ± 45.6%
−92.0 ± 16.0	−88.4 ± 7.45	3290 ± 2270	3160 ± 713	COc1ccc2cc3[n+](cc2c1OC)CCc1cc2c(cc1-3)OCO2 [Berberine]					−87.4 ± 20.8	−77.3 ± 14.6%	8.93 ± 4.01	6.13 ± 1.71	EC50 [1, 13]: 12.7 µM; EC50 ([1]; primary qHTS, viability counter screen, read-out: ERR-HEK293 Primary Viability EC50 (converted)): 12.8 µM; EC50 ([2]; HEK293, follow-up screen, read-out: PGC/ERR-HEK293 Follow-Up Viability EC50 (converted)): 17.3 µM; EC50 ([2]; HEK293, primary qHTS, read-out: PGC/ERR-HEK293 Primary Viability EC50 (converted)): 17.3 µM; Percent inhibition of mRNA gene expression, COX8α ([5]; 20 µM): 5.15 ± 0.17%; Percent inhibition of mRNA gene expression, IDH3α ([6]; 20 µM): 15.1 ± 2.97%; Percent inhibition of mRNA gene expression, Cytochrome C ([7]; 20 µM): 46.2 ± 2.61%; activity in the ERR/PGC assay ([3]; in words): antagonism; activity in the ERR assay ([4]; in words): potent antagonists
				CO/N=C(/C1=NOCCO1)c1ccccc1Oc1ncnc(Oc2ccccc2Cl)c1F [Fluoxastrobin]									Percent inhibition of mRNA gene expression, IDH3α ([6]; 7 µM): 13.3 ± 2.44%; Percent inhibition of mRNA gene expression, Cytochrome C ([7]; 7 µM): 25.5 ± 7.81%
−140 ± 24.4	−127 ± 11.8	722 ± 285	1240 ± 83.7	CC[C@@]1(O)C(=O)OCc2c1cc1n(c2=O)Cc2cc3c(CN(C)C)c(O)ccc3nc2-1 [Topotecan hydrochloride]	Inactive	Inactive	Inactive	Inactive	−78.8 ± 7.20	−69.1 ± 5.82%	5.26	14.1 ± 1.15	ERR-HEK293 Primary Efficacy ([4]; listed as topotecan): −127%

Structure (SMILES)	ERR-HEK293 Follow-Up Efficacy [4] [%]	ERR-HEK293 Primary Efficacy [4] [%]	EC50 [4, 11] [nM]	EC50 [4, 12] [nM]	ERR-HEK293 Follow-Up Viability EC50 ([1]; follow-up screen, viability)	ERR-HEK293 Primary Viability EC50 [1, 10]	PGC/ERR-HEK293 Follow-Up Viability EC50 [2]	PGC/ERR-HEK293 Primary Viability EC50 [2]	PGC/ERR-HEK293 Follow-Up Efficacy ([3]; follow-up screen) [%]	PGC/ERR-HEK293 Primary Efficacy ([3]; primary qHTS)	EC50 [3, 14] [µM]	EC50 [3, 15] [µM]	other results
CC[C@@]1(O)C(=O)OCc2c1cc1n(c2=O)Cc2c-1nc1ccccc1c2/C=N/OC(C)(C)C [Gimatecan]	−145 ± 16.0	−117 ± 14.5			Inactive	Inactive	Inactive	Inactive	−130 ± 20.6	−115 ± 2.20%			EC50 ([3]; PGC/ERR-HEK293 Follow-Up EC50): 3.34 µM; EC50 ([3]; PGC/ERR-HEK293 Primary EC50): 2.53 µM; EC50 ([4]; ERR-HEK293 Follow-Up EC50): 44.2 nM; EC50 ([4]; ERR-HEK293 Primary EC50): 49.7 nM
CO/C=C(/C(=O)OC)c1ccccc1COc1cccc(C(F)(F)F)n1 [Picoxystrobin]			3420 ± 393	807 ± 279		Inactive	Inactive	Inactive			4.19 ± 2.97	2.79 ± 2.4	EC50 [1, 13]: 32.1 µM; ERR-HEK293 Follow-Up Efficacy [8]: −86.7 ± 15.8%; ERR-HEK293 Primary Efficacy [8]: −83.9 ± 10.6%; PGC/ERR-HEK293 Follow-Up Efficacy [9]: −43.6 ± 14.2%; PGC/ERR-HEK293 Primary Efficacy [9]: −44.2 ± 4.37%
Cc1nn(C)c(Oc2ccccc2)c1C=NOCc1ccc(C(=O)OC(C)(C)C)cc1 [Fenpyroximate]	−89.6 ± 6.08	−67.1 ± 9.31	6.99 ± 3.28	4.52 ± 0.577					−56.2 ± 10.5	−36.8% and −36.8 ± 2.17%	0.0186 ± 0.021	0.00875 ± 0.000572	Percent inhibition of mRNA gene expression, Cytochrome C ([7]; 7.5 nM): 5.28 ± 4.56%; EC50 ([3]; potency, ERR/PGC antagonist assay, primary screen): 0.0088 µM; EC50 ([4]; potency, ERR antagonist assay, primary screen): 4.5 nM
